Results published in article PMC11823630, “In vitro potentiation of tetracyclines in Pseudomonas aeruginosa by RW01, a new cyclic peptide” (Antimicrobial Agents and Chemotherapy, 2024).
Converted amounts (≈) assume the structure as drawn.

Legend:
[1] = test system: PAO1 mutant MIN4_RW01_2, pmrB(F124S); assay: microbe, parasite or virus in culture; assay type: cell-based; details: Pseudomonas aeruginosa, PAO1, read-out: MIC, Sensititre
Description: (§1) Selection of resistant mutants was performed for minocycline with and without RW01 in three independent replicates for wild-type P. aeruginosa reference strain PAO1. Tubes containing Mueller-Hinton broth (MHB) were inoculated and incubated for 24 h at 37°C. Afterward, 1/100 dilution of each tube was incubated at 37°C in MHB to late-exponential growth phase, measured by spectrophotometry at OD600. […] A control plate without antibiotic was included as inoculum control. After overnight incubation, colony counting of each treatment was performed to analyze the generation of resistant population. The mutant prevention concentration (MPC) was defined as the lowest concentration of antibiotic yielding no growth of resistant mutants. Selected mutants were checked for susceptibility profiles by using a Sensititre custom plate (Thermo Fisher Scientific, Massachusetts, USA) for Gram-negative bacteria, following the manufacturer’s instructions.

[2] = test system: PAO1 mutant MIN1_RW01_4, pmrB(F124L); assay: microbe, parasite or virus in culture; assay type: cell-based; details: Pseudomonas aeruginosa, PAO1, read-out: MIC, Sensititre
Description: as §1

[3] = test system: PAO1 mutant MIN1_RW01_3, pmrB(V215L); assay: MIC, Sensititre custom plate; assay type: cell-based; details: Pseudomonas aeruginosa, PAO1, read-out: MIC, Sensititre
Description: as §1

[4] = test system: PAO1 mutant MIN2_RW01_4, pmrB(M292T); assay: MIC, Sensititre custom plate; assay type: cell-based; details: Pseudomonas aeruginosa, PAO1, read-out: MIC, Sensititre
Description: as §1

[5] = test system: PAO1 mutant MIN16_2, nalC(aa9∆4), pilQ(nt46∆1); assay: MIC, Sensititre custom plate; assay type: cell-based; details: Pseudomonas aeruginosa, PAO1, read-out: MIC, Sensititre
Description: as §1

[6] = test system: PAO1 mutant MIN4_RW01_4, pmrB(Y98N); assay: MIC, Sensititre custom plate; assay type: cell-based; details: Pseudomonas aeruginosa, PAO1, read-out: MIC, Sensititre
Description: as §1

[7] = test system: PAO1 mutant MIN2_RW01_3, parS(V152A); assay: MIC, Sensititre custom plate; assay type: cell-based; details: Pseudomonas aeruginosa, PAO1, read-out: MIC, Sensititre
Description: as §1

[8] = test system: PAO1 mutant MIN8_3, pilZ(nt18InsT); assay: MIC, Sensititre custom plate; assay type: cell-based; details: Pseudomonas aeruginosa, PAO1, read-out: MIC, Sensititre
Description: as §1

[9] = test system: PAO1 mutant MIN1_RW01_2, mexR(G58E), pilB(G326D), hutC(Y181X); assay: MIC, Sensititre custom plate; assay type: cell-based; details: Pseudomonas aeruginosa, PAO1, read-out: MIC, Sensititre
Description: as §1

[10] = test system: PAO1 mutant MIN2_RW01_1, pmrB(V215L); assay: MIC, Sensititre custom plate; assay type: cell-based; details: Pseudomonas aeruginosa, PAO1, read-out: MIC, Sensititre
Description: as §1

[11] = test system: PAO1 mutant MIN8_2, pilZ(nt18InsT); assay: MIC, Sensititre custom plate; assay type: cell-based; details: Pseudomonas aeruginosa, PAO1, read-out: MIC, Sensititre
Description: as §1

[12] = test system: P. aeruginosa PAO1, WT; assay: MIC, Sensititre custom plate; assay type: cell-based; details: Pseudomonas aeruginosa, PAO1, read-out: MIC, Sensititre
Description: as §1

[13] = test system: PAO1 mutant MIN16_4, nalC(T50P), pilM(Q62X); assay: MIC, Sensititre custom plate; assay type: cell-based; details: Pseudomonas aeruginosa, PAO1, read-out: MIC, Sensititre
Description: as §1

[14] = test system: PAO1 mutant MIN32_1, mexR(R63H), pilB(N349K), PA0646(V316G); assay: MIC, Sensititre custom plate; assay type: cell-based; details: Pseudomonas aeruginosa, PAO1, read-out: MIC, Sensititre
Description: as §1

[15] = test system: PAO1 mutant MIN8_4, pilZ(nt18InsT); assay: MIC, Sensititre custom plate; assay type: cell-based; details: Pseudomonas aeruginosa, PAO1, read-out: MIC, Sensititre
Description: as §1

[16] = test system: PAO1 mutant MIN1_RW01_1, pmrB(Y98N); assay: MIC, Sensititre custom plate; assay type: cell-based; details: Pseudomonas aeruginosa, PAO1, read-out: MIC, Sensititre
Description: as §1

[17] = test system: PAO1 mutant MIN16_3, nfxB(nt79∆14), pilB(N349K); assay: MIC, Sensititre custom plate; assay type: cell-based; details: Pseudomonas aeruginosa, PAO1, read-out: MIC, Sensititre
Description: as §1

[18] = test system: PAO1 mutant MIN2_RW01_2, pmrB(M292T); assay: MIC, Sensititre custom plate; assay type: cell-based; details: Pseudomonas aeruginosa, PAO1, read-out: MIC, Sensititre
Description: as §1

[19] = test system: PAO1 mutant MIN4_RW01_3, pmrB(M292T); assay: MIC, Sensititre custom plate; assay type: cell-based; details: Pseudomonas aeruginosa, PAO1, read-out: MIC, Sensititre
Description: as §1

[20] = test system: PAO1 mutant MIN4_RW01_1, pmrB(R429H); assay: MIC, Sensititre custom plate; assay type: cell-based; details: Pseudomonas aeruginosa, PAO1, read-out: MIC, Sensititre
Description: as §1

[21] = test system: PAO1 mutant MIN16_1, nalD(T43P); assay: MIC, Sensititre custom plate; assay type: cell-based; details: Pseudomonas aeruginosa, PAO1, read-out: MIC, Sensititre
Description: as §1

[22] = test system: PAO1 mutant MIN8_1, nalD(R3C), pilM(Q62X); assay: MIC, Sensititre custom plate; assay type: cell-based; details: Pseudomonas aeruginosa, PAO1, read-out: MIC, Sensititre
Description: as §1

[23] = test system: P. aeruginosa PAO1; assay: MIC, CLSI broth microdilution in BD Phoenix AST Broth; assay type: cell-based, Pseudomonas aeruginosa; details: Pseudomonas aeruginosa, PAO1, strain PAO1; agent alone; 37°C, 18–22 h; three biological replicates; read-out: MIC
Description: (§2) MIC for RW01 was also tested.
(§3) FIC of RW01 (FICRW01)=MIC of RW01 in combination/MIC of RW01 alone,FIC of antibiotic (FICATB)=MIC of ATB in combination/MIC of ATB alone,FICI=FICRW01 +FICATB.
(§4) FICI was interpreted as follows: synergistic effect if FICI is ≤0.5; additive effect if 0.5 < FICI ≤ 1.0; indifferent effect if 1.0 < FICI ≤ 2.0; and finally, antagonistic effect if FICI is >2.0. The average FICI considering the antibiotic MIC (no growth in any of the replicates) at different concentrations of RW01 was calculated ([28]).

[24] = test system: P. aeruginosa PAOΔmexR; assay: as above; assay type: cell-based, Pseudomonas aeruginosa; details: Pseudomonas aeruginosa
Description: as §2, §3, §4

[25] = test system: P. aeruginosa PAOΔmexZ; assay: as above; assay type: cell-based, Pseudomonas aeruginosa; details: Pseudomonas aeruginosa, strain PAOΔmexZ; agent alone; 37°C, 18–22 h; three biological replicates
Description: as §2, §3, §4

[26] = test system: P. aeruginosa PAOUW; assay: as above; assay type: cell-based, Pseudomonas aeruginosa; details: Pseudomonas aeruginosa, strain PAOUW; agent alone; 37°C, 18–22 h; three biological replicates; read-out: MIC
Description: as §2, §3, §4

[27] = test system: P. aeruginosa 125A; assay: as above; assay type: cell-based, Pseudomonas aeruginosa; details: Pseudomonas aeruginosa; strain 125A; agent alone; 37°C, 18–22 h; three biological replicates
Description: as §2, §3, §4

[28] = test system: P. aeruginosa PAOUW∆oprF; assay: as above; assay type: cell-based, Pseudomonas aeruginosa; details: Pseudomonas aeruginosa, strain PAOUWΔoprF; agent alone; 37°C, 18–22 h; three biological replicates
Description: as §2, §3, §4

[29] = test system: P. aeruginosa PAOΔoprM; assay: as above; assay type: cell-based, Pseudomonas aeruginosa; details: Pseudomonas aeruginosa
Description: as §2, §3, §4

[30] = test system: P. aeruginosa 125B; assay: as above; assay type: cell-based, Pseudomonas aeruginosa; details: Pseudomonas aeruginosa; strain 125B; agent alone; 37°C, 18–22 h; three biological replicates
Description: as §2, §3, §4

[31] = test system: P. aeruginosa 41B; assay: as above; assay type: cell-based, Pseudomonas aeruginosa; details: Pseudomonas aeruginosa; strain 41B; agent alone; 37°C, 18–22 h; three biological replicates
Description: as §2, §3, §4

[32] = test system: P. aeruginosa 41A; assay: as above; assay type: cell-based, Pseudomonas aeruginosa; details: Pseudomonas aeruginosa; strain 41A; agent alone; 37°C, 18–22 h; three biological replicates
Description: as §2, §3, §4

SMILES | MIC [1] | MIC [2] | MIC [3] | MIC [4] | MIC [5] | MIC [6] | MIC [7] | MIC [8] | MIC [9] | MIC [10] | MIC [11] | MIC [12] | MIC [13] | MIC [14] | MIC [15] | MIC [16] | MIC [17] | MIC [18] | MIC [19] | MIC [20] | further results
NCC[C@H](O)C(=O)N[C@@H]1C[C@H](N)[C@@H](O[C@H]2O[C@H](CN)[C@@H](O)[C@H](O)[C@H]2O)[C@H](O)[C@H]1O[C@H]1O[C@H](CO)[C@@H](O)[C@H](N)[C@H]1O [AMI, amikacin] | 4 µg/mL (≈ 6.83 µM) | ≤ 2 µg/mL | 4 µg/mL (≈ 6.83 µM) | 4 µg/mL (≈ 6.83 µM) | ≤ 2 µg/mL | 4 µg/mL (≈ 6.83 µM) | 8 µg/mL (≈ 13.7 µM) | ≤ 2 µg/mL | ≤ 2 µg/mL | 4 µg/mL (≈ 6.83 µM) | ≤ 2 µg/mL | ≤ 2 µg/mL | ≤ 2 µg/mL | ≤ 2 µg/mL | ≤ 2 µg/mL | 4 µg/mL (≈ 6.83 µM) | ≤ 2 µg/mL | 4 µg/mL (≈ 6.83 µM) | 4 µg/mL (≈ 6.83 µM) | 2 to 4 µg/mL (≈ 3.42 to 6.83 µM) | MIC [21]: 4 µg/mL (≈ 6.83 µM); MIC [22]: ≤ 2 µg/mL
CC(C)(O/N=C(\C(=O)N[C@@H]1C(=O)N2C(C(=O)[O-])=C(C[n+]3ccccc3)CS[C@H]12)c1csc(N)n1)C(=O)O [Ceftazidime, ceftazidime] | ≤ 1 µg/mL | 2 µg/mL (≈ 3.66 µM) | ≤ 1 µg/mL | 2 µg/mL (≈ 3.66 µM) | 4 µg/mL (≈ 7.32 µM) | ≤ 1 µg/mL | 2 µg/mL (≈ 3.66 µM) | 4 µg/mL (≈ 7.32 µM) | 4 µg/mL (≈ 7.32 µM) | 2 µg/mL (≈ 3.66 µM) | 4 µg/mL (≈ 7.32 µM) | 1 to 2 µg/mL (≈ 1.83 to 3.66 µM) | 4 µg/mL (≈ 7.32 µM) | 4 µg/mL (≈ 7.32 µM) | 4 µg/mL (≈ 7.32 µM) | ≤ 1 µg/mL | 2 µg/mL (≈ 3.66 µM) | 2 µg/mL (≈ 3.66 µM) | ≤ 1 µg/mL | 4 µg/mL (≈ 7.32 µM) | MIC [23]: 2 µg/mL; MIC [24]: 4 µg/mL; MIC [25]: 4 µg/mL; MIC [26]: 2 µg/mL; MIC [27]: 8 µg/mL; MIC [28]: 2 µg/mL; MIC [29]: 2 µg/mL; MIC [30]: 4 µg/mL; MIC [31]: 8 µg/mL; MIC [32]: 4 µg/mL; MIC [21]: 4 µg/mL (≈ 7.32 µM); MIC [22]: 4 µg/mL (≈ 7.32 µM)
